From patent publication US6706757B2, “Chroman derivatives as 5-hydroxytryptamine-6 ligands” (Wyeth, priority 2001, dated 2004) come the findings set out here.

Molecules are shown by their SMILES. pKi: −log10 of the molar value. Where a name gives a salt, the structure may show the parent alone.

This assay deals with T1, human cloned 5-HT6 receptors (Homo sapiens, UniProt P50406).
T1 construct: expressed in transfected cells; host or cells: HeLa cells (membrane preparation)
T1 sequence (P50406 whole entry): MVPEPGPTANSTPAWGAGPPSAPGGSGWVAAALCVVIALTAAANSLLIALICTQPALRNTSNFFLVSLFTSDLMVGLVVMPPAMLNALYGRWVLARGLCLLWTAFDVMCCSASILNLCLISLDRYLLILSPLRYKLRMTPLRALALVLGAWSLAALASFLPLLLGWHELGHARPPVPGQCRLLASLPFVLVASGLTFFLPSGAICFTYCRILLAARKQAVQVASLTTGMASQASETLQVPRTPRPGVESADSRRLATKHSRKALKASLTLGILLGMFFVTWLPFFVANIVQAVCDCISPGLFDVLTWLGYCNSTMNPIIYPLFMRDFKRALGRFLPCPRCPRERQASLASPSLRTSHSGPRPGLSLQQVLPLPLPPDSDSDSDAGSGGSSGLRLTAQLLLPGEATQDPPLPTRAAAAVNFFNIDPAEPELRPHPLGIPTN
The assay is described as follows: 5-HT6 binding affinity, [3H]-LSD displacement on membranes of Hela cells expressing human cloned 5-HT6 receptors. As to conditions: [3H]-LSD 3.0 nM, Hela cell membranes, 120 min at room temperature. As to the method: The affinity of test compounds for the serotonin 5-HT6 receptor is evaluated in the following manner. Cultured Hela cells expressing human cloned 5-HT6 receptors are harvested and centrifuged at low speed (1,000×g) for 10.0 min to remove the culture media. The harvested cells are suspended in half volume of fresh physiological phosphate buffered saline solution and recentrifuged at the same speed. This operation is repeated. The collected cells are then homogenized in ten volumes of 50 mM Tris.HCl (pH 7.4) and 0.5 mM EDTA. The homogenate is centrifuged at 40,000×g for 30.0 min and the precipitate is collected. The obtained pellet is resuspended in 10 volumes of Tris.HCl buffer and recentrifuged at the same speed. The final pellet is suspended in a small volume of Tris.HCl buffer and the tissue protein content is determined in aliquots of 10-25 μl volumes. Bovine Serum Albumin is used as the standard in the protein determination according to the method described in Lowry et al., J. Biol. Chem., 193:265 (1951). The volume of the suspended cell membranes is adjusted to give a tissue protein concentration of 1.0 mg/ml of suspension. The prepared membrane suspension (10 times concentrated) is aliquoted in 1.0 ml volumes and stored at −70° C. until used in subsequent binding experiments.
Binding experiments are performed in a 96 well microtiter plate format, in a total volume of 200 μl. […] The test compounds are added in 20.0 μl volume.
The reaction is allowed to proceed in the dark for 120 min at room temperature, at which time, the bound ligand-receptor complex is filtered off on a 96 well unifilter with a Packard Filtermate® 196 Harvester. The bound complex caught on the filter disk is allowed to air dry and the radioactivity is measured in a Packard TopCount® equipped with six photomultiplier detectors, after the addition of 40.0 μl Microscint®-20 scintillant to each shallow well. The unifilter plate is heat-sealed and counted in a PackardTopCount® with a tritium efficiency of 31.0%.
Binding in the presence of varying concentrations of test compound is expressed as a percentage of specific binding in the absence of test compound. The results are plotted as log % bound versus log concentration of test compound. […] A linear regression line of data points is plotted, from which the IC50 value is determined and the Ki value is determined based upon the following equation: […]
where L is the concentration of the radioactive ligand used and KD is the dissociation constant of the ligand for the receptor, both expressed in nM.
Turning to `C[C@@H](NCC1CCc2ccc(NS(=O)(=O)c3ccc(N)cc3)cc2O1)c1ccccc1` (stereo partly drawn) [Example 44, 4-amino-N-[2-({[(1R)-1-phenylethyl]amino}methyl)-3,4-dihydro-2H-chromen-7-yl]benzenesulfonamide], the negative-log Ki (pKi) (in general, −log10 of the Ki, conventionally taken in molar units) was 9.00.

Compound `C[C@@H](NC[C@H]1CCc2ccc(NS(=O)(=O)c3cccc4ccccc34)cc2O1)c1ccccc1` [Example 46A, N-[(2R)-2-({[(1R)-1-phenylethyl]amino}-methyl)-3,4-dihydro-2H-chromen-7-yl)naphthalene-1-sulfonamide Hydrochloride] showed a negative-log Ki (pKi) of 7.43.

Compound `C[C@@H](NCC1CCc2ccc(NS(=O)(=O)c3ccc(Cl)s3)cc2O1)c1ccccc1` (stereo partly drawn) [Example 42, 5-chloro-N-[2-({[(1R)-1-phenylethyl]amino}methyl)-3,4-dihydro-2H-chromen-7-yl]thiophene-2-sulfonamide] showed a pKi of 8.70.

Consider `C[C@@H](NCC1CCc2ccc(NS(=O)(=O)c3ccccc3)cc2O1)c1ccccc1` (stereo partly drawn) [Example 10, N-[2-({[(1R)-1-phenylethyl]amino}methyl)-3,4-dihydro-2H-chromen-7-yl]benzenesulfonamide], for which the pKi is 9.00.

Take `C[C@@H](NC[C@@H]1CCc2ccc(NS(=O)(=O)c3ccccc3)cc2O1)c1ccccc1` [Example 45B, N[(2S)-2-({[(1R)-1-Phenylethyl]amino}methyl)-3,4-dihydro-2H-chromen-7-yl]phenylsulfonamide]: the negative logarithm of the Ki (pKi) was 7.77.

Compound `O=S(=O)(Nc1ccc2c(c1)OC(CNC1CCc3ccccc31)CC2)c1ccccc1` (stereo not shown) [Example 13, N-{2-[(2,3-dihydro-1H-inden-1-ylamino)methyl]-3,4-dihydro-2H-chromen-7-yl}benzenesulfonamide] showed a pKi of 8.15.

In the case of `CC(C)(CO)NCC1CCc2ccc(NS(=O)(=O)c3ccccc3)cc2O1` (stereo not shown) [Example 18, N-(2-{[(2-hydroxy-1,1-dimethylethyl)amino]methyl}-3,4-dihydro-2H-chromen-7-yl)benzenesulfonamide], the pKi is 7.39.

On to `O=S(=O)(Nc1ccc2c(c1)OC(CNCCCO)CC2)c1ccccc1` (stereo not shown) [Example 5, N-{2-[(3-Hydroxypropylamino)-methyl]chroman-7-yl}benzenesulfonamide Hemifumarate salt], for which the pKi was 8.30.

The compound `O=S(=O)(Nc1ccc2c(c1)OC(CNC(Cc1ccccc1)c1ccccc1)CC2)c1ccccc1` (stereo not shown) [Example 17, N-(2-{[(1,2-diphenylethyl)amino]methyl}-3,4-dihydro-2H-chromen-7-yl)benzenesulfonamide] had a pKi of 7.08.

In turn, `Cc1c(S(=O)(=O)Nc2ccc3c(c2)OC(CN[C@H](C)c2ccccc2)CC3)sc2ccc(Cl)cc12` (stereo partly drawn) [Example 36, 5-chloro-3-methyl-N-[2-({[(1R)-1-phenylethyl]amino}methyl)-3,4-dihydro-2H-chromen-7-yl]-1-benzothiophene-2-sulfonamide] showed a pKi of 7.35.

Consider `C[C@@H](NCC1CCc2ccc(NS(=O)(=O)c3ccc(OC(F)(F)F)cc3)cc2O1)c1ccccc1` (stereo partly drawn) [Example 40, N-[2-({[(1R)-1-phenylethyl]amino}methyl)-3,4-dihydro-2H-chromen-7-yl]-4-(trifluoromethoxy)benzenesulfonamide], for which the pKi is 7.96.

Turning to `Cc1ccc(S(=O)(=O)Nc2ccc3c(c2)OC(CN[C@H](C)c2ccccc2)CC3)cc1` (stereo partly drawn) [Example 37, 4-methyl-N-[2-({[(1R)-1-phenylethyl]amino}methyl)-3,4-dihydro-2H-chromen-7-yl]benzenesulfonamide], the pKi was 7.80.

`O=S(=O)(Nc1ccc2c(c1)OC(CNCCCO)CC2)c1ccc2ccccc2c1` (stereo not shown) [Example 28, N-(2-{[(3-Hydroxypropyl)amino]methyl}-3,4-dihydro-2H-chromen-7-yl)naphthalene-2-sulfonamide] had a negative-log Ki (pKi) of 8.30.

As for `C[C@@H](NCC1CCc2ccc(N(C)S(=O)(=O)c3ccccc3Br)cc2O1)c1ccccc1` (stereo partly drawn) [Example 51, 2-bromo-N-methyl-N-[2-({[(1R)-1-phenylethyl]amino}methyl)-3,4-dihydro-2H-chromen-7-yl]benzenesulfonamide], the negative-log Ki (pKi) was 8.52.

As for `O=S(=O)(Nc1ccc2c(c1)OC(CN[C@@H](CO)c1ccccc1)CC2)c1ccccc1` (stereo partly drawn) [Example 16, N-[2-({[(1R)-2-hydroxy-1-phenylethyl]amino}methyl)-3,4-dihydro-2H-chromen-7-yl]benzenesulfonamide], the negative-log Ki (pKi) was 8.30.

`COc1cccc(CNCC2CCc3ccc(NS(=O)(=O)c4ccccc4)cc3O2)c1` (stereo not shown) [Example 6, N-(2-{[(3-methoxybenzyl)amino]methyl}-3,4-dihydro-2H-chromen-7-yl)benzenesulfonamide] gave a pKi of 8.40.

With `COc1ccc(S(=O)(=O)N(C)c2ccc3c(c2)OC(CN[C@H](C)c2ccccc2)CC3)cc1OC` (stereo partly drawn) [Example 54, 3,4-dimethoxy-N-methyl-N-[2-({[(1R)-1-phenylethyl]amino}methyl)-3,4-dihydro-2H-chromen-7-yl]benzenesulfonamide], the pKi was 7.96.

Compound `C[C@@H](NCC1CCc2ccc(N(C)S(=O)(=O)c3ccc(N)cc3)cc2O1)c1ccccc1` (stereo partly drawn) [Example 56, 4-amino-N-methyl-N-[2-({[(1R)-1-phenylethyl]amino}methyl)-3,4-dihydro-2H-chromen-7-yl]benzenesulfonamide] gave a pKi of 8.40.

On to `O=S(=O)(Nc1ccc2c(c1)OC(CNCc1ccc3c(c1)OCO3)CC2)c1ccccc1` (stereo not shown) [Example 11, N-(2-{[(1,3-benzodioxol-5-ylmethyl)amino]methyl}-3,4-dihydro-2H-chromen-7-yl)benzenesulfonamide], for which the pKi was 8.70.

`C[C@@H](NC[C@H]1CCc2ccc(NS(=O)(=O)c3ccccc3)cc2O1)c1ccccc1` [Example 45A] showed a pKi of 9.00.

With `C[C@@H](NC[C@@H]1CCc2ccc(NS(=O)(=O)c3ccc(N)cc3)cc2O1)c1ccccc1` [Example 47B, 4-Amino-N-[(2S)-2-({[(1R)-1-phenylethyl]amino}methyl)-3,4-dihydro-2H-chromen-7-yl]benezenesulfonamide Hydrochloride], the pKi is 7.96.

`C[C@H](NCC1CCc2ccc(NS(=O)(=O)c3ccccc3)cc2O1)c1ccccc1` (stereo partly drawn) [Example 14, N-[2-({[(1S)-1-phenylethyl]amino}methyl)-3,4-dihydro-2H-chromen-7-yl]benzenesulfonamide] showed a pKi of 8.00.

Regarding `O=S(=O)(Nc1ccc2c(c1)OC(CNCc1ccncc1)CC2)c1ccccc1` (stereo not shown) [Example 15, N-(2-{[(pyridin-4-ylmethyl)amino]methyl}-3,4-dihydro-2H-chromen-7-yl)benzenesulfonamide], the pKi is 7.77.

The compound `C[C@@H](NCC1CCc2ccc(NS(=O)(=O)c3ccc(Br)s3)cc2O1)c1ccccc1` (stereo partly drawn) [Example 34, 5-bromo-N-[2-({[(1R)-1-phenylethyl]amino}methyl)-3,4-dihydro-2H-chromen-7-yl]-2-thiophenesulfonamide] had a pKi of 8.30.

`O=S(=O)(Nc1ccc2c(c1)OC(CNCc1cccnc1)CC2)c1ccccc1` (stereo not shown) [Example 12, N-(2-{[(pyridin-3-ylmethyl)amino]methyl}-3,4-dihydro-2H-chromen-7-yl)benzenesulfonamide] had a pKi of 8.30.
